Experiment: Solubility of 1,2-octanediol in aqueous solution containing an alcohol solvent
Format: physicochemical
Details: for ability to dissolve 1,2-octanediol compared with HED: aqueous solution containing 10% by weight 1,2-octanediol and 10% by weight 1,2-hexanediol, FIGURE
Procedure: An aqueous solution containing 10% by weight of 1,2-octanediol, which is a water-insoluble alkanediol, was prepared. […] Therefore, the aqueous solution was cloudy.
Five alcohol solvents were each added to 10 g of the aqueous solution until the aqueous solution became transparent. The five alcohol solvents were 1,6-hexanediol (hereinafter referred to as 1,6-HED), 3-methyl-1,5-pentanediol (hereinafter referred to as 3 MPED), 1,5-pentanediol (hereinafter referred to as 1,5-PED), 1,2-hexanediol (hereinafter referred to as HED), and 2,2′-dimethylpropanediol (hereinafter referred to as 2 MPRD).
Another aqueous solution containing 10% by weight of 1,2-octanediol and 10% by weight of 1,2-hexanediol, which is a water-soluble alkanediol, was prepared. The five alcohol solvents were added to this aqueous solution in the same manner as described above until this aqueous solution became transparent.

SMILES | solubility in water (aqueous solution containing 10% by weight) | ability to dissolve 1,2-octanediol compared with HED
CCCCCCC(O)CO (centres unmarked) [1,2-octanediol] | not completely dissolved | –
CC(C)(CO)CO [2 MPRD, 2,2′-dimethylpropanediol] | – | more capable of dissolving 1,2-octanediol
CC(CCO)CCO [3 MPED, 3-methyl-1,5-pentanediol] | – | more capable of dissolving 1,2-octanediol
OCCCCCCO [1,6-HED, 1,6-hexanediol] | – | more capable of dissolving 1,2-octanediol
OCCCCCO [1,5-PED, 1,5-pentanediol] | – | more capable of dissolving 1,2-octanediol

— patent US20100321430A1, “INK COMPOSITION FOR INK JET RECORDING” (priority 2009, published 2010)
